Assay results reported in patent publication US20100003342A1, “Aqueous solution and method of prolonging life of residual chlorine in aqueous solution” (priority 2006, published 2010).
Like-named read-outs stand apart in the source and are kept apart here.

Format: physicochemical
Details: KI method

SMILES | Residual chlorine concentration (perchloric acid aqueous solution) | Residual chlorine concentration (neutral pH environment)
[O-][Cl+3]([O-])([O-])O [perchloric acid] | zero | 
[Na+].[O-][Cl+][O-] [NaClO2] |  | several
